These results are taken from patent US12653800B2, “Small molecule inhibitors of TLR2 signaling” (University of Maryland, Baltimore, priority 2015, dated 2026).

SMILES strings stand for the structures.

The conditions of data set [1]: in vivo; stated for o-vanillin, reported previously for its isomer vanillin (Beaudry 2010); cited from earlier work.
Data set [2] concerns MAPK and NF-κβ activation. In words: Western analysis of MAPK and NF-κβ activation in murine peritoneal macrophages. The data set is classed as cell-based. The conditions noted are these: C29 50 μM, P3C 50 ng/mL. The procedure: FIG. 2. C29 inhibits ligand-induced interaction of TLR2 with MyD88 and blocks MAPK and NF-κβ activation. (A) THP-1 cells were cultured in the presence of PMA (20 ng/mL) for 24 hrs and washed twice in media. THP-1 human monocytes were pretreated with media, vehicle (195 μM NaOH), or C29 (150 μM) for 1 hr and treated with P3C (50 ng/mL) in the presence of media, vehicle, or C29 for 15 or 30 min. Co-immunoprecipitation (IP) was carried out using anti-MyD88 antibody and Western analysis (IB) using whole cell lysates. (B) Densitometry analysis (mean±SEM) of 3 independent experiments as shown in (A). (C) Murine peritoneal macrophages were pretreated for 1 hr with media, vehicle (65 μM NaOH), or C29 (50 μM) and treated with P3C (50 ng/mL) for 5-30 min in the presence of media, vehicle, or C29. IB was performed using whole cell lysates and antibodies directed against the signaling intermediates indicated. β-actin was probed as a loading protein. Panel A is representative of 3 independent experiments and panel B is the mean±SEM from 3 independent experiments (*, p≤0.05). Panel B is representative of 2 independent experiments.
Cells were treated and washed once with 1×PBS and lysed using buffer containing 20 mM HEPES (pH 7.4), 150 mM NaCl, 1 mM EDTA, 1 mM EGTA (pH 8.0), 50 mM NaF, 0.5% Triton X-100, 1 mM Na3VO4, 1 mM DTT, 1 mM PMSF, and protease inhibitor (Roche Applied Science, Indianapolis, IN). Cells were harvested and protein was quantified using BCA Protein assay reagents (Thermo Scientific/Pierce, Rockford, IL). Whole cell lysates (500 μg/500 μL) were precleared using 10 μL of pre-washed Protein G Agarose (Roche Applied Science, Indianapolis, IN) for 2 hours at 4° C. with rotation. Precleared samples were incubated with the respective antibody and rotated overnight at 4° C. Pre-washed Protein G (40 μL) was added to each sample and rotated for 4 h at 4° C. Beads were washed three times in lysis buffer (without protease inhibitor) and finally in complete lysis buffer. Beads were resuspended in 2× Laemmli Sample Buffer and boiled for 10 min. […]

Data set [3] addresses T1, mTLR2/6 (Mus musculus, UniProt Q9QUN7).
T1 construct: expressed in transfected cells; host or cells: HEK293T, transient transfection; plasmids from Dr. Vladimir Toshchakov
Nature of the data set: NF-κβ (ELAM)-luciferase reporter assay in HEK293T cells transfected with murine TLR2 and TLR6, P2C. The class given is cell-based. The conditions noted are these: HEK293T transfected with murine TLR2 and TLR6, C29 50 μM, P2C 50 ng/mL 5 hrs. The procedure:
FIG. 9. C29 is species-specific and blocks human TLR2/6 signaling, but not murine TLR2/6 signaling. (A-D) HEK293T cells were transiently transfected with reporter constructs for ELAM-luciferase, Renilla-luciferase, and pcDNA3.1 in combination with/without pcDNA3-YFP-hTLR2, pFLAG-CMV1-hTLR1, pcDNA3-CFP-hTLR6, pcDNA3.1-mTLR2-CFP, pcDNA3.1-mTLR1-YFP, or pcDNA3.1-mTLR6-CFP. Cells were pretreated for 1 hr with media, vehicle (65 μM NaOH), or C29 (50 μM) and then treated with P3C or P2C (50 ng/mL) for 5 hrs in the presence of media, vehicle, or C29. Lysates were prepared and the dual-luciferase assay performed. Panels A and B represent the mean±SEM from 3 independent experiments and panels C and D represent the mean±SEM from 2 independent experiments each carried out in duplicate (*, p≤0.05; **, p≤0.01).
HEK293T cells were cultured and plated overnight in 12-well tissue culture plates (2×10^5 cells/well). Transfection mixtures consisted of pcDNA3-YFP-hTLR2 or pcDNA3.1 control vector (1 μg/well each), pELAM (NF-κB)-luciferase (0.2 μg/well), and pRL-TK-Renilla luciferase (0.05 μg/well). […] Cells were lysed in a passive lysis buffer (Promega, Madison, WI) and firefly luciferase and Renilla luciferase activities were measured using the dual luciferase reporter assay system (Promega, Madison, WI). […]
For orientation: Reporter assays use an easily measured gene product as a stand-in for the process of interest.

Data set [4] addresses TLR2 (Mus musculus, UniProt Q9QUN7). Nature of the data set: Cytokine mRNA in murine peritoneal macrophages (PEC) stimulated with bacterial TLR2 agonists. The class given is cell-based. The following applies: C29 50 μM.
Data set [5] addresses T2, TLR2/6 (Homo sapiens, UniProt O60603). Nature of the data set: IL-1β mRNA in THP-1 cells stimulated with TLR2/6 agonists (P2C, zymosan). The data set is classed as cell-based. On the set-up: expressed in transfected cells. The conditions noted are these: C29 50, 100 or 200 μM.
For data set [6], the target named is T2, TLR2/6. Nature of the data set: P2C-induced IL-8 mRNA (qRT-PCR) in HEK-TLR2 stable transfectants. The class given is cell-based. Further details: expressed in transfected cells.
[7] abbreviates: murine macrophages, MOI=0.7, 4 hrs.
Setting [8] is: primary murine macrophages (PEC), MOI=50, 4 hrs.

TLR2, sequence (Q9QUN7 25-784): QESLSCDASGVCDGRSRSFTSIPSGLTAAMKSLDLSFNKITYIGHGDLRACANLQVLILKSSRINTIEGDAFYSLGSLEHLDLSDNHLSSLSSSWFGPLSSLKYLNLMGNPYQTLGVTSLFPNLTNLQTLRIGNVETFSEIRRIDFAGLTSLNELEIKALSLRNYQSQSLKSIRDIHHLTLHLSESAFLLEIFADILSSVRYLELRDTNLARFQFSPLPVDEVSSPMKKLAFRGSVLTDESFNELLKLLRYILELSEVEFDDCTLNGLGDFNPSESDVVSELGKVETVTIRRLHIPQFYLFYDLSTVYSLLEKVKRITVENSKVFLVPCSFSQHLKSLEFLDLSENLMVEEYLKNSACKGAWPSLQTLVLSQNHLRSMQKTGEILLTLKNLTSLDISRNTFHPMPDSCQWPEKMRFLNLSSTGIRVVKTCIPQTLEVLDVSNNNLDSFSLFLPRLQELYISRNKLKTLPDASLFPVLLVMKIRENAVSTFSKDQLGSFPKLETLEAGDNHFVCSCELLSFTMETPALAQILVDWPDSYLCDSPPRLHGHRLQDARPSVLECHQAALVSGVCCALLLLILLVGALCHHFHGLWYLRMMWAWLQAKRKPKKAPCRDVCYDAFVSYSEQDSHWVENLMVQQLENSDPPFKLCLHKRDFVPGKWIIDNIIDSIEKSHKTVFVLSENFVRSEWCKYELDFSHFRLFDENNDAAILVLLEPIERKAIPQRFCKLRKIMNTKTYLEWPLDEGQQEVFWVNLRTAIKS
T2 sequence (O60603 21-784): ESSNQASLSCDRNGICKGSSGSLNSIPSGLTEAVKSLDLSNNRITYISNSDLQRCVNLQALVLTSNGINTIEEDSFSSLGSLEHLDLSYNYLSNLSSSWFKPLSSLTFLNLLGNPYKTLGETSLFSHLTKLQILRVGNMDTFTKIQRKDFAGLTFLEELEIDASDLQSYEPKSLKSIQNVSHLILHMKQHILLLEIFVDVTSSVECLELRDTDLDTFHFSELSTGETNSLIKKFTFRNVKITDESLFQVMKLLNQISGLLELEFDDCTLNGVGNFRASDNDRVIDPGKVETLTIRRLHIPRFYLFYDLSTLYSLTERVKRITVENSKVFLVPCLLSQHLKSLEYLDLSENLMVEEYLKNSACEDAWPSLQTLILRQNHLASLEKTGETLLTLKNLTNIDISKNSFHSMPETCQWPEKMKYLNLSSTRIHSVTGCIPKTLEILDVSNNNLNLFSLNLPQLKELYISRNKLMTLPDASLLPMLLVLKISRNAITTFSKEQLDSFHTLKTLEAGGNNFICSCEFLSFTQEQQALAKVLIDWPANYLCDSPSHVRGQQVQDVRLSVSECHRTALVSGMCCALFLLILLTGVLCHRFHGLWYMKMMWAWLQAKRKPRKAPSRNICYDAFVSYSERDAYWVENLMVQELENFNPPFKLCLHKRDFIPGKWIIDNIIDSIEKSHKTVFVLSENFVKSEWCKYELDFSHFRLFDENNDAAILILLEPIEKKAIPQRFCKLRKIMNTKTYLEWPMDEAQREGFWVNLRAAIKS
T1 sequence (Q9QUN7 25-784): as the sequence (Q9QUN7 25-784) above

Regarding `COc1cccc(C=O)c1O` [Compound C29L, ortho-vanillin], the bioavailability entry in data set [1] is listed as “poor bioavailability”.

On to `COc1cccc(/C=N/c2cccc(C(=O)O)c2C)c1O` [Compound C29], for which the “P3C-induced NF-κβ activation” value in data set [2] (5 to 30 min) is on record as “reduced NF-κβ activation”. Besides, the “P3C-induced degradation of IκBα” value in data set [2] (15 and 30 min) is given as “prevented P3C-induced degradation of IκBα”. Also, the “P3C-induced MAPK activation” value in data set [2] (30 min) is listed as “blocked robust MAPK activation”. Further, the “mTLR2/6-induced NF-κβ-luciferase activity” value in data set [3] is “but not mTLR2/6-induced”. In data set [4] (setting [7]), the “live S. pneumoniae-induced IL-1β mRNA” value is given as “inhibited” and the “live S. pneumoniae-induced IL-12 p40 mRNA” value was “inhibited”. In data set [4] (setting [8]), the “HKSA-mediated IL-1β mRNA” value is recorded as “significantly blocked” and the “heat-killed S. pneumoniae (HKSP)-mediated IL-1β mRNA” value is listed as “significantly blocked”. The “P2C-induced IL-1β gene expression” value in data set [5] (P2C 50 ng/mL, 1 h and 4 h) was “inhibited P3C- and P2C-induced IL-1β gene expression significantly”. For the same compound, in data set [5] (zymosan 10 μg/mL 4 hrs), the “zymosan-induced IL-1β mRNA” value was “blocked zymosan- and LTA SA-induced IL-1β mRNA dose-dependently”. Besides, the inhibition at 100 µM in data set [6] (100 μM compound, 1 hr pretreatment, P2C 5 ng/mL 1 hr, HEK-TLR2 cells, read-out: decrease of P2C-induced IL-8 mRNA) is ≥ 50%. Also, the “P2C-induced IL-8 mRNA” value in data set [6] (C29 10 μM or 50 μM, P2C 200 ng/mL 1 hr, HEK-TLR2 stable transfectants) is “blocked P3C- and P2C-induced IL-8 mRNA dose-dependently”.
